# Patent US20200054671A1, “TREATMENT OF ANXIETY DISORDER AND AUGMENTATION OF ANTI-ANXIETY INTERVENTIONS BY ADMINISTRATION OF NOBLE GAS CONTAINING MIXTURES” (NOBILIS THERAPEUTICS, INC., priority 2016, published 2020)
# Columns and labels:
# Assay type in all cases: in vivo, human
# [1] = system: patients with panic disorder; experiment: Hospital Anxiety and Depression Scale, depression subscale (HADS_D); settings: for HADS_D: patients with “clinically severe depression”: end of the active phase of treatment
# Procedure: (§1) This investigator-initiated study was performed under a prospective clinical trial protocol approved by the Institute of Mental Health and Addictology, which is accredited by the Ministry of Health of the Russian Federation to conduct clinical trials (#57689). Study conduct was in compliance with all ethical standards and good clinical practice. Ninety outpatients with a diagnosis of “panic disorder» (F41.0) according to ICD-10 were enrolled through the Institute of Mental Health and Addictology. Five patients dropped out of the study due to minor side effects, predominantly lightheadedness and headaches, and 4 patients dropped out of the study for unspecified reasons. As the intention to treat analysis was not utilized due to the open label design of the study, 81 patients with PD (49 women and 32 men), mean age was 35.2 years (range […]) were studied. Patients were randomized into 2 groups: with “pure” PD (group 1) and “comorbid” PD, when it was co-diagnosed with other mental illnesses (group 2). All patients with isolated PD (Group 1, n=42) received monotherapy with xenon at the aforementioned schedule, while the majority of patients (94.9%) with PD and comorbid conditions, which were predominantly depression (group 2, n=39), in addition to xenon administration continued treatment for comorbid psychiatric disorders, which mainly consisted of antidepressants (SSRIs and SNRIs). In these patients, the reason for xenon treatment was the increase in the frequency and severity of panic attacks despite ongoing treatment with stable pharmacotherapy of at least 3 to 6 months' duration.
# (§2) Administration of xenon was performed through inhalation of xenon-oxygen mixtures that were escalated from 15%/85% to 30%/70% with titration increments of 5% per session. Each patient in the study underwent between 6 and 7 treatments with xenon-oxygen mixture. The first three sessions were carried out daily and from session 4 onward—every other day. The selected dosing regime and the composition of the gas mixtures were based on the historical evidence of safety of subanesthetic use of xenon in imaging.
# Medical grade xenon (“medksenon»®, 99.9999%, manufacturer: Atommedcenter, Moscow, Russia) and medical grade oxygen in separate containers were admixed. […] The patients were assessed subjectively by the provider, while the vital signs (pulse, blood pressure, oxygen saturation) were continuously monitored.
# Patients were evaluated after each xenon inhalation and at 30 and 180 days after completion of treatment. […]
# [2] = system: patients with panic disorder; experiment: Zung Self-Rating Anxiety Scale (SAS)
# Procedure: as §1, §2
# (§3) Medical grade xenon (“medksenon»®, 99.9999%, manufacturer: Atommedcenter, Moscow, Russia) and medical grade oxygen in separate containers were admixed. Mixing and administration of gases in preset concentration and volume was accomplished with the use of the medical device MAGi-AMTS1, which enables the operator to adjust the concentration of xenon in the gas mixture, and which contains the electronic flow meter with a software module that allows for such adjustments. Administration of xenon-oxygen mixture to the patient was carried out via a face mask. Patients were asked to slowly inhale, holding breath for 5 to 10 seconds; exhale into the loop and after 35-40 seconds exhale outside the contour and breath in the new portion of gas mixture. Xenon inhalation lasted from 2.5 to 4 minutes, and the xenon consumption was capped at 3.0 liters per procedure. The patients were assessed subjectively by the provider, while the vital signs (pulse, blood pressure, oxygen saturation) were continuously monitored.
# (§4) Patients were evaluated after each xenon inhalation and at 30 and 180 days after completion of treatment. To this end, we employed clinical psychopathological and clinical catamnestic methods, and psychometric scales that are widely used internationally to assess the treatment of mental disorders. Scale Assessment, Zung Self-Rating Anxiety Scale (SAS) was performed prior to starting therapy (V1), and at 1 and 6 months after treatment. According to this scale, SAS index of less than 45 points corresponds to the normal value, 45-59—to mild-to-moderate degree of anxiety, 60-74—to high degree of anxiety, more than 75—to an extremely high-level of anxiety. […]
# [3] = system: patients with panic disorder; experiment: Clinical Global Impression Scale, severity of the disease subscale (CGI-S)
# Procedure: as §1, §2, §3, §4
# [4] = system: patients with panic disorder; experiment: Hospital Anxiety and Depression Scale, anxiety subscale (HADS_T), open clinical trial of xenon inhalation; settings: for HADS-T, V6 − V1, mean paired difference: after 6 sessions vs baseline; for HADS_T total score: after 3 sessions (V3)
# Procedure: as §1, §2, §3
# Patients were evaluated after each xenon inhalation and at 30 and 180 days after completion of treatment. To this end, we employed clinical psychopathological and clinical catamnestic methods, and psychometric scales that are widely used internationally to assess the treatment of mental disorders. […]
# [5] = «Pure PD» (n = 42), total given 39
compound,measurement,setting,value
[Xe] [xenon],HADS_D: patients in whom “clinically severe depression” was absent,"[1]; group 1, after 3 xenon treatments",90.5%
same,HADS_D: patients with “clinically severe depression”,[1]; group 1,2.4%
same,HADS_D: patients in whom “clinically severe depression” was present,"[1]; group 2, after 3 xenon treatments",82.1%
same,HADS_D: patients with “clinically severe depression”,[1]; group 2,46.2%
same,"Zung SAS after 1 month − V1, mean paired difference",[2]; Group 1 (n=42),−36.131
same,"Zung SAS after 6 months − V1, mean paired difference",[2]; Group 1 (n=42),−38.214
same,SAS total score,"[2]; Group 1, one month after treatment",36.5 points
same,SAS total score,"[2]; Group 1, study follow up (6 months)",34.5
same,"Zung SAS after 1 month − V1, mean paired difference",[2]; Group 2 (n=39),−17.308
same,"Zung SAS after 6 months − V1, mean paired difference",[2]; Group 2 (n=39),−16.154
same,SAS total score,"[2]; Group 2, one month after treatment",46.8 points
same,SAS total score,"[2]; Group 2, study follow up (6 months)",47.9
same,"CGI-S, V2: Moderately expressed disease, share of patients","[3]; Comorbid PD (n = 39), total 42",2.4%
same,"CGI-S, V2: Serious disease, share of patients","[3]; Comorbid PD (n = 39), total 42",4.8%
same,"CGI-S, V2: Significantly expressed disease, share of patients","[3]; Comorbid PD (n = 39), total 42",92.9%
same,"CGI-S, V3: Significantly expressed disease, share of patients","[3]; Comorbid PD (n = 39), total 42",88.1%
same,"CGI-S, V4: Moderately expressed disease, share of patients","[3]; Comorbid PD (n = 39), total 42",52.4%
same,"CGI-S, V4: Significantly expressed disease, share of patients","[3]; Comorbid PD (n = 39), total 42",.0%
same,"CGI-S, V4: Weakly expressed disease, share of patients","[3]; Comorbid PD (n = 39), total 42",47.6%
same,"CGI-S, V5: Borderline state, share of patients","[3]; Comorbid PD (n = 39), total 42",14.3%
same,"CGI-S, V5: Moderately expressed disease, share of patients","[3]; Comorbid PD (n = 39), total 42",.0%
same,"CGI-S, V5: Significantly expressed disease, share of patients","[3]; Comorbid PD (n = 39), total 42",.0%
same,"CGI-S, V5: Weakly expressed disease, share of patients","[3]; Comorbid PD (n = 39), total 42",85.7%
same,"CGI-S, V6: Normal state, share of patients","[3]; Comorbid PD (n = 39), total 42",11.9%
same,"CGI-S, V6: Weakly expressed disease, share of patients","[3]; Comorbid PD (n = 39), total 42",.0%
same,"CGI-S, V3: Moderately expressed disease, share of patients","[3]; Comorbid PD (n = 39), total 42, after the third procedure",11.9%
same,"CGI-S, V6: Borderline state, share of patients","[3]; Comorbid PD (n = 39), total 42, upon completion of xenon treatments",88.1%
same,"CGI-S, V2: Moderately expressed disease, share of patients",[3]; Total (n = 81),24.7%
same,"CGI-S, V2: Serious disease, share of patients",[3]; Total (n = 81),2.5%
same,"CGI-S, V2: Significantly expressed disease, share of patients",[3]; Total (n = 81),72.8%
same,"CGI-S, V3: Moderately expressed disease, share of patients",[3]; Total (n = 81),29.6%
same,"CGI-S, V3: Significantly expressed disease, share of patients",[3]; Total (n = 81),70.4%
same,"CGI-S, V4: Moderately expressed disease, share of patients",[3]; Total (n = 81),51.9%
same,"CGI-S, V4: Significantly expressed disease, share of patients",[3]; Total (n = 81),23.5%
same,"CGI-S, V4: Weakly expressed disease, share of patients",[3]; Total (n = 81),24.7%
same,"CGI-S, V5: Borderline state, share of patients",[3]; Total (n = 81),7.4%
same,"CGI-S, V5: Moderately expressed disease, share of patients",[3]; Total (n = 81),45.7%
same,"CGI-S, V5: Significantly expressed disease, share of patients",[3]; Total (n = 81),1.2%
same,"CGI-S, V5: Weakly expressed disease, share of patients",[3]; Total (n = 81),45.7%
same,"CGI-S, V6: Borderline state, share of patients",[3]; Total (n = 81),85.2%
same,"CGI-S, V6: Normal state, share of patients",[3]; Total (n = 81),6.2%
same,"CGI-S, V6: Weakly expressed disease, share of patients",[3]; Total (n = 81),8.6%
same,"CGI-S, V2: Moderately expressed disease, share of patients",[3]; [5],48.7%
same,"CGI-S, V2: Serious disease, share of patients",[3]; [5],.0%
same,"CGI-S, V2: Significantly expressed disease, share of patients",[3]; [5],51.3%
same,"CGI-S, V3: Significantly expressed disease, share of patients",[3]; [5],51.3%
same,"CGI-S, V4: Moderately expressed disease, share of patients",[3]; [5],51.3%
same,"CGI-S, V4: Significantly expressed disease, share of patients",[3]; [5],48.7%
same,"CGI-S, V4: Weakly expressed disease, share of patients",[3]; [5],.0%
same,"CGI-S, V5: Borderline state, share of patients",[3]; [5],.0%
same,"CGI-S, V5: Moderately expressed disease, share of patients",[3]; [5],94.9%
same,"CGI-S, V5: Significantly expressed disease, share of patients",[3]; [5],2.6%
same,"CGI-S, V5: Weakly expressed disease, share of patients",[3]; [5],2.6%
same,"CGI-S, V6: Normal state, share of patients",[3]; [5],.0%
same,"CGI-S, V6: Weakly expressed disease, share of patients",[3]; [5],17.9%
same,"CGI-S, V3: Moderately expressed disease, share of patients","[3]; «Pure PD» (n = 42), total given 39, after the third procedure",48.7%
same,"CGI-S, V6: Borderline state, share of patients","[3]; «Pure PD» (n = 42), total given 39, upon completion of xenon treatments",82.1%
same,"HADS-T, V6 − V1, mean paired difference","[4]; Group 1 («pure» PD, n=42, xenon monotherapy)",−11.214
same,HADS_T total score,[4]; Group 1,13.3
same,"HADS-T, V6 − V1, mean paired difference","[4]; Group 2 («comorbid» PD, n=39)",−11.436
same,HADS_T total score,[4]; Group 2,13.3
same,HADS_T overall score category,"[4]; both groups, end of treatment (V6)",norm
